Measured values published in US6599499B1, “Uses of diterpenoid triepoxides as an anti-proliferative agent” (priority 1999, dated 2003).

Experiments:
[1] = tested on: p53 consensus binding site; experiment: Electromobility shift assay of p53 DNA binding; format: cell-based, human
Experimental: Electromobility Shift Assay (EMSA. HT1080 cells were treated as shown. The EMSA was performed as described previously using an end-labeled 32P-p53 consensus binding site (Santa Cruz Biotechnology, Santa Cruz, Calif.) (Lee et al., supra.)

[2] = tested on: MCF-7 (breast cancer) cells; experiment: cells; conditions: for Percent survival: MTT after 48 h
Experimental: (§1) Cell culture and luciferase assay. A549 (non-small cell lung cancer), HT-1080 (fibrosarcoma), and MCF-7 (breast cancer) cells were cultured in the appropriate media with 10% FCS supplemented with L-glutamine, penicillin, and streptomycin. p53 wild-type (+/+) and null (−/−) Mouse Embryonic Fibroblasts (MEFs) transfected with the E1A/Ras were grown in DMEM containing 15% FCS supplemented with L-glutamine, penicillin, and streptomycin. Transfections were done on MCF-7 cells using the lipofectamine Plus reagent. At 24 hours after transfection, MCF-7 cells were left untreated or treated with triptolide (20 ng/ml) or doxorubicin (100 nM) for 4, 8, and 16 hours and cells were collected for luciferase assay. Luciferase activity was measured in samples with equal protein concentration with a Luminometer (Analytical Luminescence Laboratory, San Diego, Calif.).
(§2) Cell viability assay. Cell viability was measured by an 3-(4,5-dimethylthiazol-2-yl)-2,5-diphenyltetrazolium bromide (MTT) assay as described above. Untreated or cells treated with triptolide and/or doxorubicin were harvested at the indicated times followed by the addition of MTT to the cells in a 96-well plate. Cells were solubilized with […] acidified with 0.1N HCl. The 96-plate was read at a wavelength of 590 nm on an iEMS Labsystems plate reader.

p53 null (−/−) MEFs = experiment: Cell viability of p53-/- mouse embryonic fibroblasts; conditions: Fibroblast, read-out: reduction of cell viability
Experimental: as §1, §2

Bax = Bax protein level by immunoblot in MCF-7 cells; format: cell-based, human; conditions: triptolide-treated MCF-7 cells
Experimental: Immunoblotting. At 8 hours after triptolide and/or doxorubicin treatment cells were harvested at the times indicated and lysed using HNET buffer (50 mM HEPES pH 7.5, 100 mM NaCl, 1 mM EGTA, and 1% Triton X-100) supplemented with 1 mM DTT, 1 mM PMSF and protease inhibitors cocktail (Boehringer Mannheim, Germany). 35 μg of protein was loaded on 10% SDS-PAGE followed by transferring to PVDF membrane. Immunoblotting was performed as previously described using a p53 mouse monoclonal antibody from Oncogene Research Products (Lee et al. (1999) J Biol Chem 274:13451-5).
(§3) Immunoblot analysis using other antibodies was performed as described above. The band intensity was measured by NIH Image 1.62.

Dx5 cells = experiment: Cell survival of Bcl-2 or vector transfected Dx5 cells (X-gal staining); format: cell-based, human; conditions: PG490 20 ng/ml, 36 h
Experimental: Cells were cultured in the appropriate medium with 10% FCS supplemented with L-glutamine, penicillin and streptomycin. To examine the effect of Bcl-2 on cell survival, the Bcl-2 expression vector or the vector alone was co-transfected with a β galactosidase expression vector (Invitrogen, Carlsbad, Calif.) at a 5:1 ratio using lipofectamine plus (GIBCO BRL, Gaithersburg, Md.) into Dx5 cells. After 36 h cells were stained with 5-bromo4-chloro-3-indolyl □-D-galactopyranoside (X-gal). Cell survival was calculated as number of total cells-blue cells/total number of cells in a 90 mm^2 area from duplicate plates and expressed as the mean ±S.D.
Bcl-2 or vector control was transiently transfected into Dx5 cells followed by the addition of PG490 (20 ng/ml) and stained 36 h later with X-gal. % cell survival was calculated as total cells-blue cells/total cells×100. z-VAD.fmk (100 µM) was added to Dx5 cells 1 h prior to the addition of PG490 (20 ng/ml) and cells were harvested for analysis of cell viability 36 h later by annexin and propidium iodide staining followed by FACS analysis. Data represents the mean of three replicates from two independent experiments ±S.D.

[3] = tested on: H23 (non-small cell lung cancer) cell line; experiment: cells
Experimental: (§4) Cells and Transfections. H23 (non-small cell lung cancer) and ZR-75 (breast cancer) cell lines were purchased from ATCC. The Bcl-2 expression vector was provided by Fred Hutchinson Cancer Research Center, Seattle, Wash. MES-SA and Dx5 cell lines were provided by Branimir Sikic (Stanford University). Cells were cultured in the appropriate medium with 10% FCS supplemented with L-glutamine, penicillin and streptomycin. To examine the effect of Bcl-2 on cell survival, the Bcl-2 expression vector or the vector alone was co-transfected with a β galactosidase expression vector (Invitrogen, Carlsbad, Calif.) at a 5:1 ratio using lipofectamine plus (GIBCO BRL, Gaithersburg, Md.) into Dx5 cells. After 36 h cells were stained with 5-bromo4-chloro-3-indolyl […]-D-galactopyranoside (X-gal). Cell survival was calculated as number of total cells-blue cells/total number of cells in a 90 mm^2 area from duplicate plates and expressed as the mean ±S.D.
(§5) Cell death reagents and assays. Cell viability was measured by an MTT assay as recently described (Lee et al. (1999) J. Biol. Chem. 274:13451-13455. z-VAD-fluoromethylketone (z-VAD.fmk) was obtained from Alexis Biochemicals, San Diego, Calif. The effect of z-VAD.fmk on cell viability was analyzed by annexin and propidium iodide staining followed by FACS analysis according to the manufacturer's protocol (Clontech Laboratories, Palo Alto, Calif.). The analysis of apoptosis in histologic sections was done by terminal deoxynucleotidyl transferase (TdT)-mediated d-UTP nick end labeling (TUNEL) of slides from paraffin sections of day 3 tumors harvested from the mice 24 h after the second of two daily treatments with PG490-88 or saline. TUNEL staining was done according to the manufacturer's protocol (Boehringer Mannheim, Indianapolis, Ind.) and then the histology slides were counterstained with methyl green. DNA was isolated from cells for analysis of internucleosomal DNA laddering followed by agarose gel electrophoresis and ethidium bromide staining.
(§6) In FIG. 1A, ZR-75 (breast cancer), H23 (non-small cell lung cancer) and Dx5 (MDR uterine sarcoma) cell lines were treated with PG490 at dosages shown and harvested 48 h later for analysis of cell viability by an MTT assay. Data is the mean of three experiments ±S.D. In FIG. 1B, DNA was isolated from untreated or PG490-treated cells 16 h after the addition of PG490 followed by agarose gel electrophoresis and ethidium bromide staining.

[4] = tested on: ZR-75 (breast cancer) cell line; experiment: cells; conditions: ZR75, 48 h
Experimental: as §4, §5, §6

[5] = tested on: Dx5 (MDR uterine sarcoma) cell line; experiment: cells
Experimental: as §4, §5, §6

p53 = p53 protein stability in the presence of cycloheximide; format: cell-based, human
Experimental: as §3
Immunoblotting. Cells were harvested at the conditions and times indicated and lysed using HNET buffer (50 mM HEPES, pH 7.5, 100 mM NaCl, 1 mM EGTA, and 1% Triton X-100) supplemented with 1 mM dithiothreitol, 1 mM phenylmethylsulfonyl fluoride, and protease inhibitors mixture (Roche Molecular Biochemicals). 100 μg of protein was loaded on 10% SDS-PAGE followed by transferring to polyvinylidene difluoride membrane. Immunoblotting was performed as described previously using a p53 mouse monoclonal antibody from Oncogene Research Products. […] Immunoblot analysis using other antibodies was performed as described above. The band intensity was measured by NIH Image 1.62.

CC(C)[C@]12O[C@H]1[C@@H]1O[C@]13[C@]1(O[C@H]1C[C@H]1C4=C(CC[C@@]13C)C(=O)OC4)[C@@H]2O [PG490, triptolide]
DNA binding of p53 ([1]; triptolide alone): slightly enhanced | effect on doxorubicin-mediated induction of DNA binding of p53 ([1]; triptolide in combination with doxorubicin): did not block | cytotoxicity at 0.02 µg/mL ([2]; Homo sapiens, MCF7, read-out: decrease in cell viability, MCF-7, triptolide 20 ng/ml): 70% | Percent survival ([2]; MCF-7, Triptolide 5 ng/ml): 63.9 ± 8.1% | Percent survival ([2]; MCF-7, Triptolide 20 ng/ml): 30.5 ± 7.6% | cytotoxicity at 0.005 µg/mL (p53 null (−/−) MEFs): 15% | cytotoxicity at 0.01 µg/mL (p53 null (−/−) MEFs): 50% | change in Bax (Bax): no significant change | cell survival (Dx5 cells; overexpression of Bcl-2): 72% | cell survival (Dx5 cells; vector control): 15% | cytotoxicity at 0.01 µg/mL ([3]; Homo sapiens, NCI-H23, 48 h, read-out: decrease in cell viability): 65 to 70% | cytotoxicity at 0.02 µg/mL ([3]; Homo sapiens, NCI-H23, 48 h, read-out: reduction of cell viability): > 80% | cell death, % of cells ([3]; mutant p53 lung cancer cell line): over 80% | cytotoxicity at 0.01 µg/mL ([4]; read-out: decrease in cell viability): 24% | cytotoxicity at 0.02 µg/mL ([4]; read-out: reduction of cell viability): > 80% | difference in sensitivity between Dx5 cell line and parent MES-SA cell line [5]: No significant difference | cytotoxicity at 0.01 µg/mL ([5]; Homo sapiens, 48 h, read-out: decrease in cell viability): 65 to 70% | cytotoxicity at 0.02 µg/mL ([5]; Homo sapiens, 48 h, read-out: reduction of cell viability): > 80% | p53 stability versus untreated cells (p53; HT1080, triptolide 20 ng/ml 0.5 h prior to cycloheximide 30 μg/ml): no difference from untreated cells at 60 min | p53 stability versus untreated cells (p53; MCF-7, triptolide 0.5 h prior to cycloheximide 30 μg/ml): no difference from untreated cells at 60 min
